Consider four compounds from US20090092553A1, “MONOCARBOXYLATE TRANSPORTERS EXPRESSED IN CANCER CELLS” (Xenoport,Inc., priority 2003, published 2009).

Structures are written as SMILES. Numbering of substitutions follows the chain as printed.

Experiment [1] deals with T1, MCT1 (Homo sapiens, UniProt P53985).
T1 sequence (P53985 1-500): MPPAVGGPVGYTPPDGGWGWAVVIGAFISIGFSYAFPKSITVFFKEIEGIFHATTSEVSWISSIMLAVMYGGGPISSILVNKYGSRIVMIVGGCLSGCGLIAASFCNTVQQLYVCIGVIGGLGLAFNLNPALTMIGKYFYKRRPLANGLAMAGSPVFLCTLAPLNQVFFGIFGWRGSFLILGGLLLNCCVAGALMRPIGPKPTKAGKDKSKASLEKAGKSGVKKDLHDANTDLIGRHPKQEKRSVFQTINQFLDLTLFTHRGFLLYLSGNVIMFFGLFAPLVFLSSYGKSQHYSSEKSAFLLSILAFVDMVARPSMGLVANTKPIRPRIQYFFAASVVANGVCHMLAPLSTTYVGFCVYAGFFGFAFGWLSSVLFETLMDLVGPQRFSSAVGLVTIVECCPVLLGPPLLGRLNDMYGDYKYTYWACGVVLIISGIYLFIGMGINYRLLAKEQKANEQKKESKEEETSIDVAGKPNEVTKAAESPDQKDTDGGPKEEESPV
Kind of experiment: HEK cell intracellular pH (BCECF) / phloretin inhibition assay. Format: cell-based. The conditions noted are these: HEK cells; for effect on the intracellular pH response to lactate: applied together with lactate. The source says: Because MCT1 transports both the carboxylate anion and the corresponding proton, a pH measuring assay was developed to measure net transport of protons into the cytoplasm. Intracellular pH can be measured by a pH-sensitive fluorescent dye such as BCECF. […] In the phloretin inhibition assay, the HEK cells are first exposed to a plurality of solutions containing various concentrations of the test compound (in FIG. 3, the model test compound is lactate) and then to the same solutions to which have been added a set (0.25 mM) concentration of phloretin. Thus, FIG. 3 is a graph of lactate concentration ([L]) versus the percent of maximum pH change found with administration of the highest concentration of the test compound (lactate) alone. […] This is because MCT1 co-transports lactate and a proton into the HEK cells, causing their internal pH to decrease. This pH lowering effect is shown by the characteristic reverse-S-shaped dose response upper curve in FIG. 3. When the cells are exposed to the solutions containing both lactate and phloretin, the phloretin inhibits the lactate uptake by MCT1 and there is little pH change in the cells, as shown by the relatively flat lower curve in FIG. 3. The phloretin inhibition assay can also be used to determine those carboxylic acids that are actively transported MCT substrates from those that are only passively absorbed across the cell membrane. In the latter case, when a passive absorbed acid is applied to HEK cells, there is an intracellular acidification, which occurs both with and without phloretin.
FIG. 4 is a graph of 2-TPGA concentration ([2-TPGA]) versus the relative percent decrease in intracellular pH compared to a standard decrease in intracellular pH caused by exposure of the cells to 20 mM lactate solution. When 0.25 mM phloretin was applied to these cells in addition to 2-TPGA, MCT1 transport was blocked and no significant pH change was detected.
FIG. 5 is a graph of sulfasalazine concentration ([sulfasalazine]) versus the relative percent decrease in intracellular pH compared to a standard decrease in intracellular pH caused by exposure of the cells to 20 mM lactate solution.

The target of experiment [2] is T2, MCT1 (Homo sapiens, UniProt P53985, D490E).
T2 sequence (P53985 1-500 D490E): T1 sequence (P53985 1-500) with D490E
Kind of experiment: Xenopus oocyte ROMK electrophysiological pH assay, MCT1. Format: cell-based.

Experiment [3] concerns the target T1, MCT1. The following applies: cited from earlier work.
The target in experiment [4] is T3, MCT4 (Homo sapiens, UniProt O15427).
T3 sequence (O15427 1-465): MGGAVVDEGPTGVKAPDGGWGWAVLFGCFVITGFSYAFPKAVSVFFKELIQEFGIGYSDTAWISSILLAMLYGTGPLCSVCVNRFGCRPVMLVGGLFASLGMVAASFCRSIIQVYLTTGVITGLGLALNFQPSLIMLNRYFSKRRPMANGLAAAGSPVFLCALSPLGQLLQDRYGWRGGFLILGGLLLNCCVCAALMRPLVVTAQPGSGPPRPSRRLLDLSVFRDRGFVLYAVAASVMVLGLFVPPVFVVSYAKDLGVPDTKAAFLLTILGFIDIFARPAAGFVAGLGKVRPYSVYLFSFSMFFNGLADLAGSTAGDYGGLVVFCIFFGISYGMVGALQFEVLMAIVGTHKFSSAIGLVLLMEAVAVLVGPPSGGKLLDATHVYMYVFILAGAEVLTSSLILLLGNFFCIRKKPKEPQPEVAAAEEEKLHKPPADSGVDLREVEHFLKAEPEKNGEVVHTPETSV
The conditions noted are these: cited from earlier work.

Experiment [5] concerns the target T3, MCT4. As to the kind of experiment: Xenopus oocyte ROMK electrophysiological pH assay, MCT4. Format: cell-based. Also noted: The complete open reading frame was cloned into a Xenopus oocyte expression plasmid; expressed in transfected cells; host or cells: Xenopus oocytes injected with cRNA.

For the compound `O=C(O)C(=O)c1cccs1` [Compound 2-TPGA, 2-thiophene glyoxylic acid], the “substrate status from intracellular pH change with and without 0.25 mM phloretin” value in experiment [1] (FIG. 4) is “substrate for, and is actively transported by, MCT1”.

Consider `CC(O)C(=O)O` (centres unmarked) [lactate], for which the “intracellular pH change when applied alone” value in experiment [1] is “dose-dependent intracellular acidification”. Moreover, the “effect on ROMK potassium current” value in experiment [2] (oocytes co-expressing ROMK and MCT1, 10 mM lactate solution) was “strong inhibition of the potassium current”; in experiment [5] (oocytes co-expressing ROMK and MCT4, 10 mM lactate solution) it was “strong inhibition of the potassium current”. Moreover, the results for the affinity for lactate in experiment [3] and in experiment [4] were about 2 mM and about 40 mM, respectively.

For the compound `O=C(CCc1ccc(O)cc1)c1c(O)cc(O)cc1O` [phloretin], in experiment [1], the “intracellular pH change when applied alone” value is reported as “does not cause an intracellular pH change” and the “effect on the intracellular pH response to lactate” value is listed as “completely blocks the lactate response”. The “effect of co-application with lactate on the potassium current” value in experiment [2] (oocytes co-expressing ROMK and MCT1, 350 μM phloretin and 10 mM lactate) is recorded as “completely blocks the effect of lactate on the potassium current”. The “effect of co-application with lactate on the potassium current” value in experiment [5] (oocytes co-expressing ROMK and MCT4, 350 μM phloretin and 10 mM lactate) is “completely blocks the effect of lactate on the potassium current”.

Consider `O=C(O)c1cc(/N=N/c2ccc(S(=O)(=O)Nc3ccccn3)cc2)ccc1O` [sulfasalazine], for which, in experiment [1], the “effect on the intracellular pH response to lactate” value was “inhibitor of MCT1”.
